In US6765014B1, “1-Acyl-7-nitroindoline derivatives, their preparation and their use as photocleavable precursors” (Medical Research Council, priority 1999, dated 2004):
One block for each compound: values may come before it.

Legend:
[1] = Quantum yield estimation by laser flash irradiation (347 nm); assay type: physicochemical
Method: Quantum yield estimation for 10. A solution of 1-(2-nitrophenylethyl) phosphate and 10 (each 0.50 mM) together with dithiothreitol (5 mM) was prepared in 25 mM ammonium phosphate, pH 7.0. Aliquots of the solution ([…]) in a 1-mm path length cell were each subjected to one 50-ns flash from a frequency-doubled ruby laser, that delivered 347 nm light with an average energy of 90 mJ (range 83-104 mJ). The combined irradiated solutions were analyzed by reverse-phase HPLC (mobile phase 25 mM Na phosphate, pH 6.0+40% MeOH, 1.5 ml/min). Retention times were 4.2 and 7.2 min for 10 and 1-(2-nitrophenylethyl) phosphate respectively. Quantification was based on peak heights compared to those of the unphotolyzed control. Extinction coefficients at 347 nm used to calculate the relative quantum yields were 2720 and 510 M^−1cm^−1 for 10 and 1-(2-nitrophenylethyl) phosphate respectively. Photolysis and product analysis for compounds 10 and 18.
The product quantum yield (Qp) for photolysis of the glutamate derivative 10 was determined by laser flash irradiation (347 nm) of a solution containing 10 and 1-(2-nitrophenyl)ethyl phosphate (16) (both 0.5 mM in pH 7 phosphate buffer). Conversions by a single flash (˜90 mJ) were 9.7 and 23% respectively (reverse-phase HPLC), leading to Qp=0.043 by comparison with the known value (16) (0.54) for the caged phosphate and after correction for the different extinction coefficients at the irradiation wavelength. Although the value of Qp is low, the relatively high extinction coefficient at ˜350 nm (˜2700 M^−1cm^−1) compared to that of “classical” 2-nitrobenzyl-type caged compounds (˜600 M^−1cm^−1) enables similar photolytic efficiency to be achieved.

glutamate ion channels = experiment: Whole-cell patch clamp of cultured rat cerebellar granule neurones, with and without flash photolysis; assay type: cell-based
Method: The caged L-glutamate reagent 10 was tested in primary cultures of rat cerebellar granule neurones for its pharmacological actions and ability to effect photolytic activation of glutamate ion channels. All electrophysiological experiments were performed in Mg^2+-free mammalian Ringer's solution containing 100 μM glycine. Cells were voltage clamped at −65 mV with whole-cell patch clamp (17) and the glutamate sensitivity was established by responses to 20 ms pulses of L-glutamate, applied at a frequency of 0.25 Hz by iontophoresis from a 1-μm tipped glass pipette. […] The latter most likely arises from glutamate diffusion away from the photolyzed region. The time course of the initial decline may represent desensitization of non-NMDA glutamate channels.
During the slow decline there was a clear increase in the low frequency noise of the glutamate-activated current compared to baseline, consistent with gating of glutamate-activated ion channels.

[2] = Hydrolytic stability of 1-acyl-7-nitroindolines (reverse-phase HPLC); assay type: physicochemical; conditions: 62.5 mM Na phosphate, pH 12.01, 30° C.
Method: The extent of hydrolysis was determined by reverse-phase HPLC analysis (mobile phase 25 mM Na phosphate, pH 6.0+10% MeOH, 1.5 ml/min). […] Quantification was based on peak heights compared to those of unhydrolysed controls (to). First-order rate constants for hydrolysis were obtained from single exponential fits to the data.
In addition to the release rate of the bioeffector species following flash irradiation, important properties of any caged compound include stability in aqueous solution and its extent of photolysis upon a single flash irradiation.
In this context, hydrolytic stability refers to the amide bond. […] The use of the free acids avoided analytical complications from the much faster cleavage of the ester group.

[3] = Photolysis and product analysis (HPLC and quantitative amino acid analysis); assay type: physicochemical; conditions: for Extent of photolysis (conversion): 0.5 mM, 25 mM ammonium phosphate pH 7.0, 3 min mercury arc lamp; for Measured concentration of glutamate as % of value calculated from extent of photolysis: 25 mM ammonium phosphate pH 7.0 ± 1 mM dithiothreitol; for Stoichiometry of effector release upon photolysis: quantitative amino acid analysis of part-photolyzed solutions
Method: Separate solutions of 10 (each 0.50 mM) in 25 mM ammonium phosphate, pH 7.0±1 mM dithiothreitol were irradiated in a 1-mm path length cell for 3 min using light from a mercury arc lamp which passed through Hoya 340 and Schott WG 305 filters before illuminating the cell. The extent of photolysis was determined by reverse-phase HPLC (mobile phase 25 mM Na phosphate, pH 6.0+10% MeOH, 1.5 ml/min). Quantification was based on peak heights compared to those of unphotolyzed controls. Aliquots of the photolyzed solutions were also subjected to quantitative amino acid analysis (see General Procedures).
Photolysis and product analysis for compound 21. A solution (0.5 mM) of 21 in 25 mM ammonium phosphate, pH 7.0 was irradiated as described for compound 10 and the photolyzed solution was quantified by reverse-phase HPLC and amino acid analysis.

[4] = Relative photolysis efficiencies of 8 and 11 (xenon arc lamp, HPLC); assay type: physicochemical
Method: Relative photolysis efficiencies of 8 and 11. A solution containing both 8 and 11 (each 0.5 mM) in 25 mM Na phosphate, pH 7.0 was irradiated in a 1-mm path length cell using light from a 100 W xenon arc lamp which passed through Hoya 340 and Schott WG 305 filters before. illuminating the cell. The extent of photolysis of each compound was determined by reverse-phase HPLC analysis (mobile phase 10 mM Na phosphate, pH 6.0+50% MeOH, 1.5 mL/min). Retention times for 8 and 11 were 3.8 and 7.8 min respectively. After 2 min irradiation, the extents of conversion for compounds 8 and 11 were 40 and 16% respectively.
Upon comparative photolysis of the 1-glutaryl derivatives 8 and 11 in aqueous solutions at pH 7 and without excluding atmospheric oxygen, the bromo compound 11 was indeed converted ˜2.5-fold less efficiently than 8. Photolysis of 8 proceeded cleanly, as shown by an isosbestic point at 365 nm in spectra of a solution photolyzed for increasing times to at least 65% conversion, but the photoproduct of the protecting group was not the 7-nitroindoline 12 (λmax 450 nm) expected from the previous report (6a). […] Further confirmation of the presence of a nitroso group was that treatment of 13, R=CH2CO2Me) with a thiol readily abolished the 412 nm chromophore, presumably by conversion to the corresponding hydroxylamine (11, 12). […] In control experiments, photolysis of the glutaryl compound 8 in CH2Cl2-dioxane-H2O (2:3:0.05) cleanly gave the expected (6a) nitroindoline 12.

[5] = Comparative photolysis in aqueous solution (Rayonet photochemical reactor, UV-VIS); assay type: physicochemical; conditions: for Time required for half-maximal photolysis: pH 7 (5:95), 16×350 nm lamps; for Photolysis upon irradiation: near-UV light, UV-visible spectrum of irradiated solution, conditions for 24 not given
Method: Comparative photolysis of methyl 1-acetyl-7-nitroindoline-5-acetate 16 and 1-acetyl-4-methoxy-7-nitroindoline 25 in aqueous solution. Separate 1 ml samples of each compound [0.0896 mM in EtOH-25 mM Na phosphate, pH 7 (5:95)] in 1 cm path length optical cells were photolysed simultaneously for 0, 0.25, 0.5, 1, 2, 4, 6 and 8 min in a Rayonet photochemical reactor (16×350 nm lamps) and UV-VIS spectra were recorded after each irradiation period. FIGS. 4 and 5 show the time course of photolysis for 16 and 25 respectively.
Comparative photolysis of 1-acetyl-4-methoxy-7-nitroindoline 25 and 1-acetyl-4-methoxy-[…] 30 in aqueous solution. Separate 1 ml samples of each compound [0.0748 mM in EtOH-25 mM Na phosphate, pH 7 (5:95)] in 1 cm path length optical cells were photolysed simultaneously for 0, 0.25, 0.5, 1, 2, 4 and 6 min in a Rayonet photochemical reactor (16×350 nm lamps) and UV-VIS spectra were recorded after each irradiation period. FIGS. 6 and 7 show the time course of photolysis for 25 and 30 respectively.
With the relative merits of the substitution pattern on the aromatic ring established, the effect of the more powerfully electron-releasing 4-dimethylamino group was probed. The required indole 32 was prepared via the semicarbazone 31 from N,N-dimethyl-2-methyl-3-nitroaniline by a modified Leimgruber-Batcho procedure (30). […] Nitration as before with NaNO3-TFA gave a complex mixture, from which the 5-nitro compound 34 was separated by chromatography. To achieve isolation of the required 7-nitro isomer 36, the remaining material was hydrolysed and the products chromatographed. The 5,7-dinitroindoline 35 was obtained in pure form, together with fractions that contained the presumed 7-nitroindoline. Acetylation of these combined fractions provided the desired material 36 in poor overall yield. Its structure was confirmed by nOe enhancement of the 5-proton upon irradiation of the dimethylamino signal. In the related 5-nitro isomer 34, irradiation of the dimethylamino signal had no effect on the integrated intensity of either aromatic proton signal. […] The series of compounds described in this latter series of experiments could be coupled to effector moieties, e.g. as described for compounds 10 and 21. [drawing 8] [drawing 9] [drawing 10]

[6] = 0.0896 mM in EtOH-25 mM Na phosphate
[7] = 0.0748 mM in EtOH-25 mM Na phosphate

Structure (SMILES): COC(=O)Cc1cc2c(c([N+](=O)[O-])c1)N(C(=O)CC[C@H](N)C(=O)O)CC2 [Compound 10, Methyl 1-[S-(4-amino-4-carboxybutanoyl)]-7-nitroindoline-5-acetate]
Extinction coefficient at ~350 nm [1]: ~2700 M⁻¹ cm⁻¹
Conversion by a single flash ([1]; 347 nm laser flash, ~90 mJ, 0.5 mM, pH 7 phosphate buffer): 9.7%
Product quantum yield (Qp) ([1]; 347 nm, by comparison with caged phosphate, corrected for extinction coefficients): 0.043
Extinction coefficient at 347 nm ([1]; used to calculate relative quantum yields): 2720 M⁻¹ cm⁻¹
Effect on peak response to iontophoretic pulses of L-glutamate (glutamate ion channels; 1 mM in bath, no photolysis): did not diminish
Activation of current in granule neurones by unphotolyzed caged compound (glutamate ion channels; 1 mM in bath, −65 mV, no photolysis): no activation of current
Time scale of L-glutamate release by flash photolysis (glutamate ion channels; 1 ms light pulse): on the same time scale as the light pulse
Rise of inward current after flash photolysis, exponential half-time (mean) (glutamate ion channels; 1 ms xenon arc flash, Schott UG11 filter, n=8): 0.74 ms
Fast decline of inward current, mean half-time (glutamate ion channels; after 1 ms xenon arc flash): 2.9 ms
Activity at glutamate ion channels of NMDA- and non-NMDA-activated types (glutamate ion channels; unphotolyzed compound): inactive
Half-times for hydrolysis (amide hydrolysis) [2]: 6 h
Extent of photolysis (conversion) [3]: ~35%
Measured concentration of glutamate as % of value calculated from extent of photolysis [3]: 90-94%
Stoichiometry of effector release upon photolysis [3]: 1:1 stoichiometry
Efficiency of glutamate release upon photolysis, 10 vs the salt of its free acid ([3]; separate experiments): equal efficiency

Structure (SMILES): O=C(O)CCCC(=O)N1CCc2cc(Br)cc([N+](=O)[O-])c21 [Compound 11, 5-Bromo-1-glutaryl-7-nitroindoline]
Extent of conversion (photolysis) ([4]; after 2 min irradiation, 0.5 mM each, 25 mM Na phosphate pH 7.0, 100 W xenon arc lamp): 16%
Fold less efficient photolytic conversion than 8 ([4]; aqueous solution pH 7, atmospheric oxygen not excluded): ~2.5 fold

Structure (SMILES): COC(=O)Cc1cc(N=O)c2[nH]ccc2c1 [Compound 13, Methyl 7-nitrosoindole-5-acetate]
Effect of photolysis by-product on glutamate receptors or resting membrane properties (glutamate ion channels; control experiments during and after photolysis): no adverse effect

Structure (SMILES): COC(=O)Cc1cc2c(c([N+](=O)[O-])c1)N(C(C)=O)CC2 [Compound 16, Methyl 1-acetyl-7-nitroindoline-5-acetate]
Time required for half-maximal photolysis [5, 6]: ~1.2 min

Structure (SMILES): N[C@@H](CCC(=O)N1CCc2cc(CC(=O)O)cc([N+](=O)[O-])c21)C(=O)O [Compound 18, 1-[S-(4-amino-4-carboxybutanoyl)]-7-nitroindoline-5-acetic acid]
Extent of photolysis (conversion) [3]: ~51%
Measured concentration of glutamate as % of value calculated from extent of photolysis [3]: 97-108%

Structure (SMILES): COC(=O)Cc1cc2c(c([N+](=O)[O-])c1)N(C(=O)CCCN)CC2 [Compound 21, Methyl 1-(4-aminobutanoyl)-7-nitroindoline-5-acetate]
Extent of photolysis (conversion) [3]: 38%
Stoichiometry of effector release upon photolysis [3]: stoichiometric release of GABA

Second part, the compound after the results:

Photolysis upon irradiation [5]: photostable
Structure (SMILES): COC(=O)Cc1cc([N+](=O)[O-])c(OC)c2c1N(C(C)=O)CC2 [Compound 24, Methyl 1-acetyl-4-methoxy-5-nitroindoline-7-acetate]

Time required for half-maximal photolysis [5, 7]: ~0.4 min
Time required for half-maximal photolysis [5, 6]: ~0.4 min
Fold more efficient photolysis than 30 ([5]; aqueous solution): ~2 fold
Fold more efficient photolysis than 16 ([5]; aqueous solution, equal concentration): ~3 fold
Structure (SMILES): COc1ccc([N+](=O)[O-])c2c1CCN2C(C)=O [Compound 25, 1-Acetyl-4-methoxy-7-nitroindoline]

Time required for half-maximal photolysis [5, 7]: ~0.9 min
Fold less efficient photolysis than 25 ([5]; aqueous solution): ~2 fold
Structure (SMILES): COc1c(C)cc([N+](=O)[O-])c2c1CCN2C(C)=O [Compound 30, 1-Acetyl-4-methoxy-5-methyl-7-nitroindoline]

melting point: 177 to 178 °C
Photolysis upon irradiation [5]: no detectable photolysis
Structure (SMILES): CC(=O)N1CCc2c(N(C)C)ccc([N+](=O)[O-])c21 [Compound 36, 1-acetyl-4-N,N-dimethylamino-7-nitroindoline]
